Measured values as given in PubChem BioAssay (NCI).
“And” between values parts separate entries of the source, which are not always exact repeats. Equal entries are not always repeated.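 Assay format: 96-well plates, 48-hour exposure. GI50 is the concentration that inhibits growth by half. TGI denotes the concentration required for complete inhibition of growth.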

What was measured:
Assay in all cases: growth of human tumour cells (NCI), 48 h
786-0 renal = system: 786-0 renal
LOX IMVI melanoma = system: LOX IMVI melanoma
DMS 273 small cell lung = system: DMS 273 small cell lung
CCRF-CEM leukemia = system: CCRF-CEM leukemia
A549 NSCLC = system: A549 NSCLC
HOP-18 NSCLC = system: HOP-18 NSCLC
NCI-H23 lung = system: NCI-H23 lung
CAKI-1 renal = system: CAKI-1 renal
DU-145 prostate = system: DU-145 prostate
T-47D breast = system: T-47D breast

C[C@H]1C/C=C/[C@H]2[C@@H]3O[C@]3(C)[C@@H](C)[C@H]3[C@H](Cc4ccccc4)NC(=O)[C@]32OC(=O)O/C=C/[C@@](C)(O)C1=O
TGI (786-0 renal): 63.5 µM | GI50 (LOX IMVI melanoma): < 0.01 µM and 0.025 µM | GI50 (DMS 273 small cell lung): 0.0125 µM | TGI (DMS 273 small cell lung): > 96.8 µM and 64.2 µM | GI50 (CCRF-CEM leukemia): 0.0125 µM and 0.025 µM | TGI (CCRF-CEM leukemia): 67.7 µM and 84.6 µM and 71.5 µM | GI50 (A549 NSCLC): 0.0462 µM | GI50 (HOP-18 NSCLC): < 0.0116 µM | TGI (HOP-18 NSCLC): 0.162 µM | GI50 (NCI-H23 lung): 0.17 µM and 0.13 µM | TGI (CAKI-1 renal): 0.0428 µM

O=c1c2ccccc2[nH]c2c(O)ccc(O)c12
TGI (786-0 renal): 38.8 µM | TGI (LOX IMVI melanoma): 33.9 µM | TGI (DMS 273 small cell lung): 30.5 µM | TGI (CCRF-CEM leukemia): > 88.6 µM | TGI (A549 NSCLC): > 100 µM | TGI (NCI-H23 lung): 71.5 µM | TGI (CAKI-1 renal): 30.4 µM

CCOC(=O)C1C=C2O[C@@H]3OC4(CCCCC4)O[C@@H]3C2C2C(=O)CCC(=O)[C@@]12C(=O)OC (stereo not given in full)
TGI (786-0 renal): > 100 µM | TGI (LOX IMVI melanoma): > 100 µM | TGI (DMS 273 small cell lung): > 100 µM | TGI (CCRF-CEM leukemia): > 100 µM | TGI (A549 NSCLC): > 100 µM | TGI (HOP-18 NSCLC): > 100 µM | TGI (NCI-H23 lung): > 100 µM | TGI (CAKI-1 renal): > 100 µM

N#Cc1ccc(-c2c(-c3ncn[nH]3)sc(N3CCOCC3)c2C#N)c(F)c1
GI50 (DU-145 prostate): 1.66 µM | TGI (DU-145 prostate): > 100 µM | GI50 (786-0 renal): 0.457 µM | TGI (786-0 renal): 12.1 µM | GI50 (LOX IMVI melanoma): 0.546 µM | TGI (LOX IMVI melanoma): 13.1 µM | GI50 (T-47D breast): 0.0391 µM | TGI (T-47D breast): 0.522 µM | GI50 (CCRF-CEM leukemia): 3.88 µM | TGI (CCRF-CEM leukemia): > 100 µM | GI50 (A549 NSCLC): 0.666 µM | TGI (A549 NSCLC): 12.7 µM | GI50 (NCI-H23 lung): 3.32 µM | TGI (NCI-H23 lung): > 100 µM | GI50 (CAKI-1 renal): 0.432 µM | TGI (CAKI-1 renal): 15.6 µM

CC1=C(/C=C/C(=O)CC(=O)/C=C/C2=C(C)CCCC2(C)C)C(C)(C)CCC1
GI50 (DU-145 prostate): 14.3 µM | TGI (DU-145 prostate): > 100 µM | GI50 (786-0 renal): 25.2 µM | TGI (786-0 renal): > 100 µM | GI50 (LOX IMVI melanoma): 18.5 µM | TGI (LOX IMVI melanoma): 81 µM | GI50 (T-47D breast): 41.5 µM | TGI (T-47D breast): > 100 µM | GI50 (CCRF-CEM leukemia): 5.22 µM | TGI (CCRF-CEM leukemia): 31 µM | GI50 (A549 NSCLC): 34.2 µM | TGI (A549 NSCLC): > 100 µM | GI50 (NCI-H23 lung): 24.9 µM | TGI (NCI-H23 lung): > 100 µM | GI50 (CAKI-1 renal): 19.1 µM | TGI (CAKI-1 renal): > 100 µM

CCOC(=O)Nc1nc2ccccc2[nH]1
GI50 (DU-145 prostate): 8.58 µM and 4.18 µM | TGI (DU-145 prostate): > 100 µM | GI50 (786-0 renal): 7.37 µM | TGI (786-0 renal): > 100 µM | GI50 (LOX IMVI melanoma): 7.1 µM and 6.82 µM | TGI (LOX IMVI melanoma): > 100 µM | GI50 (T-47D breast): 5.76 µM and 4.62 µM | TGI (T-47D breast): > 100 µM | GI50 (CCRF-CEM leukemia): 3.6 µM and 4.41 µM | TGI (CCRF-CEM leukemia): > 100 µM | GI50 (A549 NSCLC): 7.08 µM and 9.89 µM | TGI (A549 NSCLC): > 100 µM | GI50 (NCI-H23 lung): 8.17 µM and > 21.9 µM | TGI (NCI-H23 lung): > 100 µM | GI50 (CAKI-1 renal): 3.84 µM and 3.73 µM | TGI (CAKI-1 renal): > 100 µM

COc1cc(Cl)cc(-c2nn(-c3cccc(NC(=O)Nc4cccc(C(F)(F)F)c4)c3)cc2-c2ccncc2)c1
GI50 (DU-145 prostate): 2.61 µM | TGI (DU-145 prostate): > 100 µM | GI50 (786-0 renal): 1.94 µM | TGI (786-0 renal): 6.78 µM | GI50 (LOX IMVI melanoma): 1.81 µM | TGI (LOX IMVI melanoma): 7.04 µM | GI50 (T-47D breast): 1.23 µM | TGI (T-47D breast): 6.99 µM | GI50 (CCRF-CEM leukemia): 1.2 µM | TGI (CCRF-CEM leukemia): 5.36 µM | GI50 (A549 NSCLC): 0.726 µM | TGI (A549 NSCLC): 7.42 µM | GI50 (NCI-H23 lung): 1.76 µM | TGI (NCI-H23 lung): 6.69 µM | GI50 (CAKI-1 renal): 1.29 µM | TGI (CAKI-1 renal): 8.9 µM

Cc1cccc(C)c1NC(=O)CCC/C(CC(=O)c1ccc(F)cc1)=N\NC(=O)C(=O)NN
TGI (786-0 renal): > 100 µM | TGI (LOX IMVI melanoma): > 100 µM | TGI (DMS 273 small cell lung): > 100 µM | TGI (CCRF-CEM leukemia): > 100 µM | TGI (A549 NSCLC): > 100 µM | TGI (HOP-18 NSCLC): > 100 µM | TGI (NCI-H23 lung): > 100 µM | TGI (CAKI-1 renal): > 100 µM

O=[P+](O)c1ccccn1
TGI (786-0 renal): > 100 µM | TGI (LOX IMVI melanoma): > 100 µM | TGI (DMS 273 small cell lung): > 100 µM | TGI (CCRF-CEM leukemia): > 100 µM | TGI (A549 NSCLC): > 100 µM | TGI (NCI-H23 lung): > 100 µM | TGI (CAKI-1 renal): > 100 µM
